Data as given in PMC9305623, “Next generation GLP-1/GIP/glucagon triple agonists normalize body weight in obese mice” (Molecular Metabolism, 2022).
*1 amine or outer side, *2 acyl side, *3 side chain or, on linkers, in order; H or OH if unused. Where a SMILES comes first, the peptide text is derived from it. Side-chain parts run from the residue outwards. [ ]: non-standard residue; d: D form. The star is where a group is joined. C20 diacid = O=C(O)CCCCCCCCCCCCCCCCCCC(=O)*; γGlu = O=C(O)[C@H](CCC(=O)[*:2])N[*:1]; εLys = N[C@@H](CCCCN[*:1])C(=O)[*:2]; Aib = CC(C)(N)C(=O)O

Legend:
hGcg Receptor = biological target: T1, hGcg Receptor (Homo sapiens, UniProt P47871); experiment: Receptor activation: cAMP production by CRE-luciferase reporter in stably transfected BHK cells; format: cell-based; conditions: compared to the native ligand for the receptor
T1 construct: expressed in transfected cells; host or cells: baby hamster kidney (BHK) cells, stably transfected, with CRE-firefly luciferase reporter
Protocol: (§1) Cyclic AMP (cAMP) production was assessed as a proxy for receptor activation using stably transfected baby hamster kidney (BHK) cell lines expressing the DNA for one individual receptor (GLP-1R, GIPR, GcgR; human- or mouse-specific sequence) and the DNA for the firefly luciferase reporter gene linked to the cAMP response element (CRE). The cells were kept in continuous culture at 37 °C and 5% CO2 in Dulbecco's Modified Eagle Medium (DMEM) supplemented with 10% heat-inactivated fetal bovine serum (HI-FBS), 300 μg/mL hygromycin, and 500 μg/mL G418; for cell lines expressing GIPR, the G418 concentration was lowered to 400 μg/mL. Cells were plated in a 96-well poly-D-lysine-coated plate at 5,000 cells per well in growth media and incubated overnight at 37 °C with 5% CO2. After the overnight incubation, the media was removed, the plate was washed once in Dulbecco's phosphase-buffered saline (DPBS), and 50 μL of assay buffer (DMEM without phenol red, 10 mM HEPES, 1x Glutamax, 1% ovalbumin, 0.1% Pluronic F-68) was added to each well. […] Aliquots of the dilution curves were added to the cell plate in a volume of 50 μL per well resulting in final assay concentrations ranging from 1 × 10^−14 to 1 × 10^−7 M. The assay plate was incubated for 3 h at 37 °C and 5% CO2. After the incubation, the assay plate was washed once with DPBS. A 100 μL aliquot of DPBS was added to each well followed by 100 μL of steadylite plus reagent (PerkinElmer). The assay plate was covered to protect reagent from light, shaken at 250 rpm at room temperature for 30 min, and read in a microtiter plate reader. EC50 values were calculated using Prism software (GraphPad) with the nonlinear regression log(agonist) vs. response. A minimum of two replicates were measured for each sample.

hGIP Receptor = biological target: T2, hGIP Receptor (Homo sapiens, UniProt P48546); experiment: as above; format: cell-based; conditions: compared to the native ligand for the receptor
T2 construct: expressed in transfected cells; host or cells: baby hamster kidney (BHK) cells, stably transfected, with CRE-firefly luciferase reporter
T2 sequence (P48546 22-466): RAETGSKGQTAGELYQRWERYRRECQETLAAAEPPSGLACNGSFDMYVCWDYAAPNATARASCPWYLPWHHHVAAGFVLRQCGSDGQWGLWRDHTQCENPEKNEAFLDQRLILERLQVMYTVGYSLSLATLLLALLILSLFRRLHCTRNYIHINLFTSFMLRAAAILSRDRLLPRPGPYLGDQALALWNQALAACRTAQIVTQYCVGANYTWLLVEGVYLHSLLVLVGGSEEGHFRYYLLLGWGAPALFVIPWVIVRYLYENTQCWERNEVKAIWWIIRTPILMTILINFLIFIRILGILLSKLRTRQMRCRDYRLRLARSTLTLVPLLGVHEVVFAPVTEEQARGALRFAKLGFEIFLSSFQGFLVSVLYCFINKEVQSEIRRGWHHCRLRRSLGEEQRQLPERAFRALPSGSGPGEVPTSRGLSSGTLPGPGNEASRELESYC
Protocol: as §1

hGLP-1 Receptor = biological target: T3, hGLP-1 Receptor (Homo sapiens, UniProt P43220); experiment: as above; format: cell-based; conditions: compared to the native ligand for the receptor
T3 construct: expressed in transfected cells; host or cells: baby hamster kidney (BHK) cells, stably transfected, with CRE-firefly luciferase reporter
Protocol: as §1

in vivo = experiment: in vivo; parameters: species or system Göttingen minipigs; conditions: female, Göttingen, minipig, iv, 2 nmol/kg
Protocol: Studies were conducted in accordance with the Protection of Animals Act, the Act on Experiments on Animals, and the Standard Operating Procedures for Experiments on Animals at Novo Nordisk A/S. The experiments were performed under the supervision and approval of the Danish Government Animal Experiments Inspectorate and the Novo Nordisk Ethical Review Counsel. Female Göttingen minipigs (Ellegaard Göttingen Minipigs A/S), 7–14 months old and weighing 16–35 kg, were housed individually and fed once daily with a restricted SDS minipig diet (Special Diets Services). At least one week before the study, two permanent central venous catheters were implanted in the caudal vena cava of each animal. The animals were fasted for approximately 18 h before dosing and 4 h after dosing but had ad libitum access to water during the whole period. Test compounds dissolved to a concentration of 20–40 nmol/mL in a vehicle (pH 7.4) containing 0.025% polysorbate-20, 10 mM sodium phosphate, and 250 mM glycerol were administered via an intravenous injection through one catheter at a dose of 2 nmol/kg. Blood samples were collected in 8 mM aqueous EDTA for up to 14 days post dosing, preferably through the other catheter, then centrifuged at 4 °C and ∼2000g for 10 min. Plasma was isolated and immediately frozen until RP-HPLC/MS analysis. Individual plasma concentration–time profiles were analysed by a non-compartmental model in Phoenix WinNonLin software (Pharsight Inc.), and the resulting terminal half-lives were determined at the harmonic mean.

T3 sequence (P43220 24-463): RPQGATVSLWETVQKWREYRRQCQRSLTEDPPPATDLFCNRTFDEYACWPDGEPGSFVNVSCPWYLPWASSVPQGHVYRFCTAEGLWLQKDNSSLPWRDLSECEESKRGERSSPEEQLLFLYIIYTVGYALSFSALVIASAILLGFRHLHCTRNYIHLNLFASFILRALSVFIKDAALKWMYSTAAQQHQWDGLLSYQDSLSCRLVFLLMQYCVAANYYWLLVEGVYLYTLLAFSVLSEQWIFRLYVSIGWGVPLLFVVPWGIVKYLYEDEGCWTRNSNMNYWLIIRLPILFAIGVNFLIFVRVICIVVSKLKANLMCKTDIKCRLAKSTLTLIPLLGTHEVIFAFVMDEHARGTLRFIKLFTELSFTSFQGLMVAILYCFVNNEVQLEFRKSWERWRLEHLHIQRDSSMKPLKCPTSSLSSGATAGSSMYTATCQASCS
T1 sequence (P47871 26-477): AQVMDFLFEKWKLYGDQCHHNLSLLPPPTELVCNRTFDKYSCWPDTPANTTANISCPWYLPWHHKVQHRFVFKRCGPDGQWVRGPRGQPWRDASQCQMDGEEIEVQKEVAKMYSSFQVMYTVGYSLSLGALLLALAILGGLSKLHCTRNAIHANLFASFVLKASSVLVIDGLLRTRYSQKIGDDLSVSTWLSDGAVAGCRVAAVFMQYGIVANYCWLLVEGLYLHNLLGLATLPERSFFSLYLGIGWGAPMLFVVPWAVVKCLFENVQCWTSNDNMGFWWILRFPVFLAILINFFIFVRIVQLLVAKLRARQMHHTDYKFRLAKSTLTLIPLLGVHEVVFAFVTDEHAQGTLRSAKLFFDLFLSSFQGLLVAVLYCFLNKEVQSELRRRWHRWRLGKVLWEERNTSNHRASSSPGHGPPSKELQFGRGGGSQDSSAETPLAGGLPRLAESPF

Row | Structure (SMILES) | hGcg Receptor Relative Potency % (hGcg Receptor) | hGIP Receptor Relative Potency % (hGIP Receptor) | hGLP-1 Receptor Relative Potency % (hGLP-1 Receptor) | Vd (in vivo) | clearance (in vivo)
1 | CC[C@H](C)[C@H](NC(=O)[C@H](CO)NC(=O)[C@H](Cc1ccc(O)cc1)NC(=O)[C@H](CC(=O)O)NC(=O)[C@H](CO)NC(=O)[C@@H](NC(=O)[C@H](Cc1ccccc1)NC(=O)[C@@H](NC(=O)CNC(=O)[C@H](CCC(N)=O)NC(=O)C(C)(C)NC(=O)[C@@H](N)Cc1c[nH]cn1)[C@@H](C)O)[C@@H](C)O)C(=O)N[C@@H](Cc1ccc(O)cc1)C(=O)N[C@@H](CC(C)C)C(=O)N[C@@H](CCC(=O)O)C(=O)N[C@@H](CCCCNC(=O)[C@@H](N)CCCCNC(=O)[C@@H](N)CCCCNC(=O)CC[C@H](NC(=O)CCCCCCCCCCCCCCCCCCC(=O)O)C(=O)O)C(=O)N[C@@H](CCC(N)=O)C(=O)N[C@@H](C)C(=O)N[C@@H](C)C(=O)NC(C)(C)C(=O)N[C@@H](CCC(=O)O)C(=O)N[C@@H](Cc1ccccc1)C(=O)N[C@H](C(=O)N[C@@H](CCC(N)=O)C(=O)N[C@@H](Cc1c[nH]c2ccccc12)C(=O)N[C@@H](CC(C)C)C(=O)N[C@@H](CC(C)C)C(=O)N[C@@H](CCC(=O)O)C(=O)NCC(=O)NCC(=O)N1CCC[C@H]1C(=O)N[C@@H](CO)C(=O)N[C@@H](CO)C(=O)NCC(=O)N[C@@H](C)C(=O)N1CCC[C@H]1C(=O)N1CCC[C@H]1C(=O)N1CCC[C@H]1C(=O)N[C@@H](CO)C(N)=O)C(C)C [Compound 12] (H-H[Aib]QGTFTSDYSIYLEK([εLys-εLys-γGlu-C20 diacid])QAA[Aib]EFVQWLLEGGPSSGAPPPS-NH2) | 3% | 19% | 410% |  | 
2 | CC[C@H](C)[C@H](NC(=O)[C@H](CO)NC(=O)[C@H](Cc1ccc(O)cc1)NC(=O)[C@H](CC(=O)O)NC(=O)[C@H](CO)NC(=O)[C@@H](NC(=O)[C@H](Cc1ccccc1)NC(=O)[C@@H](NC(=O)CNC(=O)[C@H](CCC(N)=O)NC(=O)C(C)(C)NC(=O)[C@@H](N)Cc1ccc(O)cc1)[C@@H](C)O)[C@@H](C)O)C(=O)N[C@@H](Cc1ccc(O)cc1)C(=O)N[C@@H](CC(C)C)C(=O)N[C@@H](CC(=O)O)C(=O)N[C@@H](CCCCNC(=O)COCCOCCNC(=O)COCCOCCNC(=O)CC[C@H](NC(=O)CCCCCCCCCCCCCCCCCCC(=O)O)C(=O)O)C(=O)N[C@@H](CCC(N)=O)C(=O)N[C@@H](C)C(=O)N[C@@H](C)C(=O)NC(C)(C)C(=O)N[C@@H](CCC(=O)O)C(=O)N[C@@H](Cc1ccccc1)C(=O)N[C@H](C(=O)N[C@@H](CC(N)=O)C(=O)N[C@@H](Cc1c[nH]c2ccccc12)C(=O)N[C@@H](CC(C)C)C(=O)N[C@@H](CC(C)C)C(=O)N[C@@H](C)C(=O)NCC(=O)NCC(=O)N1CCC[C@H]1C(=O)N[C@@H](CO)C(=O)N[C@@H](CO)C(=O)NCC(=O)N[C@@H](C)C(=O)N1CCC[C@H]1C(=O)N1CCC[C@H]1C(=O)N1CCC[C@H]1C(=O)N[C@@H](CO)C(N)=O)C(C)C [Compound 8] | 6% | 39% | 101% | 0.154 L/kg | 1.2 mL/h/kg
3 | CCCCCCCCCCCCCCCC(=O)NCCCC[C@H](NC(=O)[C@H](CO)NC(=O)[C@@H]1CCCN1C(=O)[C@@H]1CCCN1C(=O)[C@@H]1CCCN1C(=O)[C@H](C)NC(=O)CNC(=O)[C@H](CO)NC(=O)[C@H](CO)NC(=O)[C@@H]1CCCN1C(=O)CNC(=O)CNC(=O)[C@H](C)NC(=O)[C@H](CC(C)C)NC(=O)[C@H](CC(C)C)NC(=O)[C@H](Cc1c[nH]c2ccccc12)NC(=O)[C@H](CC(N)=O)NC(=O)[C@@H](NC(=O)[C@H](Cc1ccccc1)NC(=O)[C@H](CCC(=O)O)NC(=O)C(C)(C)NC(=O)[C@H](C)NC(=O)[C@H](C)NC(=O)[C@H](CCC(N)=O)NC(=O)[C@H](CCCCN)NC(=O)[C@H](CC(=O)O)NC(=O)[C@H](CC(C)C)NC(=O)[C@H](Cc1ccc(O)cc1)NC(=O)[C@@H](NC(=O)[C@H](CO)NC(=O)[C@H](Cc1ccc(O)cc1)NC(=O)[C@H](CC(=O)O)NC(=O)[C@H](CO)NC(=O)[C@@H](NC(=O)[C@H](Cc1ccccc1)NC(=O)[C@@H](NC(=O)CNC(=O)[C@H](CCC(N)=O)NC(=O)C(C)(C)NC(=O)[C@@H](N)Cc1ccc(O)cc1)[C@@H](C)O)[C@@H](C)O)[C@@H](C)CC)C(C)C)C(N)=O [Compound 5] | 33% | 173% | 199% |  | 
4 | CC[C@H](C)[C@H](NC(=O)[C@H](CO)NC(=O)[C@H](Cc1ccc(O)cc1)NC(=O)[C@H](CC(=O)O)NC(=O)[C@H](CO)NC(=O)[C@@H](NC(=O)[C@H](Cc1ccccc1)NC(=O)[C@@H](NC(=O)CNC(=O)[C@H](Cc1c[nH]cn1)NC(=O)C(C)(C)NC(=O)[C@@H](N)Cc1ccc(O)cc1)[C@@H](C)O)[C@@H](C)O)C(=O)N[C@@H](Cc1ccc(O)cc1)C(=O)N[C@@H](CC(C)C)C(=O)N[C@@H](CCC(=O)O)C(=O)N[C@@H](CCCCNC(=O)[C@@H](N)CCCCNC(=O)[C@@H](N)CCCCNC(=O)CC[C@H](NC(=O)CCCCCCCCCCCCCCCCCCC(=O)O)C(=O)O)C(=O)N[C@@H](CCC(N)=O)C(=O)N[C@@H](C)C(=O)N[C@@H](C)C(=O)NC(C)(C)C(=O)N[C@@H](CCC(=O)O)C(=O)N[C@@H](Cc1ccccc1)C(=O)N[C@H](C(=O)N[C@@H](CCC(N)=O)C(=O)N[C@@H](Cc1c[nH]c2ccccc12)C(=O)N[C@@H](CC(C)C)C(=O)N[C@@H](CC(C)C)C(=O)N[C@@H](CCC(=O)O)C(=O)NCC(=O)NCC(=O)N1CCC[C@H]1C(=O)N[C@@H](CO)C(=O)N[C@@H](CO)C(=O)NCC(=O)N[C@@H](C)C(=O)N1CCC[C@H]1C(=O)N1CCC[C@H]1C(=O)N1CCC[C@H]1C(=O)N[C@@H](CO)C(N)=O)C(C)C [Compound 11] (H-Y[Aib]HGTFTSDYSIYLEK([εLys-εLys-γGlu-C20 diacid])QAA[Aib]EFVQWLLEGGPSSGAPPPS-NH2) | 13% | 147% | 7% |  | 
5 | CC[C@H](C)[C@H](NC(=O)[C@H](CO)NC(=O)[C@H](Cc1ccc(O)cc1)NC(=O)[C@H](CC(=O)O)NC(=O)[C@H](CO)NC(=O)[C@@H](NC(=O)[C@H](Cc1ccccc1)NC(=O)[C@@H](NC(=O)CNC(=O)[C@H](CCC(N)=O)NC(=O)C(C)(C)NC(=O)[C@@H](N)Cc1ccc(O)cc1)[C@@H](C)O)[C@@H](C)O)C(=O)N[C@@H](Cc1ccc(O)cc1)C(=O)N[C@@H](CC(C)C)C(=O)N[C@@H](CCC(=O)O)C(=O)N[C@@H](CCCCNC(=O)[C@@H](N)CCCCNC(=O)[C@@H](N)CCCCNC(=O)CC[C@H](NC(=O)CCCCCCCCCCCCCCCCCCC(=O)O)C(=O)O)C(=O)N[C@@H](CCC(N)=O)C(=O)N[C@@H](C)C(=O)N[C@@H](C)C(=O)NC(C)(C)C(=O)N[C@@H](CCC(=O)O)C(=O)N[C@@H](Cc1ccccc1)C(=O)N[C@H](C(=O)N[C@@H](CCC(N)=O)C(=O)N[C@@H](Cc1c[nH]c2ccccc12)C(=O)N[C@@H](CC(C)C)C(=O)N[C@@H](CC(C)C)C(=O)N[C@@H](CCC(=O)O)C(=O)NCC(=O)NCC(=O)N1CCC[C@H]1C(=O)N[C@@H](CO)C(=O)N[C@@H](CO)C(=O)NCC(=O)N[C@@H](C)C(=O)N1CCC[C@H]1C(=O)N1CCC[C@H]1C(=O)N1CCC[C@H]1C(=O)N[C@@H](CO)C(N)=O)C(C)C [Compound 10] (H-Y[Aib]QGTFTSDYSIYLEK([εLys-εLys-γGlu-C20 diacid])QAA[Aib]EFVQWLLEGGPSSGAPPPS-NH2) | 11% | 150% | 244% |  | 
